Legend:
[1] = test system: H3K4me3 levels in HCT 116 cells; experiment: Histone H3K4me3 status by western blot of histone extracts; assay type: cell-based; conditions: for global H3K4me3 levels: HCT 116
Description: FIG. 9. Comparison of KDM5 inhibitors, EP4-TAT and CPI-455. […] (B) Relative H3K4me3 levels were monitored in histone extracts from HCT 116 cells.
The EP4-TAT inhibitor from all the above experiments were tested for histone methylation status in HCT 116 cells. 3×10^6 cells were plated in 10 cm dish and incubated overnight. Cells were then treated with the inhibitors at various concentrations (0.001 to 15 μM). Cells (5×10^6 cells/mL), 24 hr of post dosing, were collected in 15 mL falcon tube and centrifuged at 300×g for 10 min. The supernatant was discarded and the cells are washed with iced cold PBS. The cell pellet is flash-frozen in liquid nitrogen and stored at −80° C. Histone isolation is done using standard protocol. To summarize, cells were re-suspended in 1 mL hypotonic lysis buffer (10 mM Tris-HCl pH 8, 1 mM KCl, 1.5 mM MgCl2 and 1 mM DTT) containing protease inhibitor. The cells were transferred to 1.5 mL tube and incubated for 30 min on rotor at 4° C. to promote hypotonic swelling and lysis. The intact nuclei are collected by centrifugation at 10,000×g for 10 min in a cooled tabletop centrifuge. The supernatant is entirely discarded and pellets were re-suspended completely in 600 μL 0.4N H2SO4 and incubated overnight on rotor at 4° C. The nuclear debris were removed by centrifugation at 16,000×g for 10 min. The supernatant containing the histones were transferred to a fresh 1.5 mL tube and precipitated by adding 195 μL TCA (33%) drop by drop. The reaction is incubated at 4° C. overnight under rotation. The histones were pelleted by centrifugation at 16,000×g for 10 min. After complete removal of the supernatant carefully, the histone pellets were washed with ice-cold acetone to remove the left-over acids without disturbing the pellet. Finally, the pellets were air dried for 30 min at room temperature. The histone pellets were dissolved in 100 μL milliQ water and stored frozen at −20° C. Samples of 1, 3 and 5 μL of histones were separated on 15% SDS-PAGE gel and stained with Coomassie Brilliant Blue and characterized on the quality and concentration of the histone. The locations of the linker histone H1 and the core histones H3, H2B, H2A and H4 were noted.
For western blot, of total of 1 μL of histones were separated on 15% SDS-PAGE and transferred overnight at 15V on PVDF membrane. Following blocking with 5% nonfat dry milk in 1×TBST for 1 hr, the membrane containing histones lanes treated with inhibitor, were probed with H3K4Me3 (Abcam) primary antibody (1:2500) in 1×PBST. Both the membranes were incubated overnight at 4° C. under rotation. […] Histone proteins were detected by Supersignal™ West Pico PLUS Chemiluminescent substrate (ThermoFisher Scientific) using the Chemidoc XRS+ imaging system (BioRad). […]

[2] = test system: KDM5; conditions: given as 'in vivo'; Vinogradova et al., 2016; read-out: IC50 of KDM5 inhibition; cited from earlier work
[3] = test system: HCT 116 cells; experiment: Cell viability, resazurin reduction assay; assay type: cell-based; conditions: for loss of cell viability: HCT 116, 10 μM, cell penetrating peptide by itself
Description: (§1) FIG. 7. Cellular EP4 inhibitor delivery and viability. (A) Diagrammatic representation of EP4 inhibitor peptide showing N-terminally tagged 6-carboxyfluorescein and C-terminally tagged TAT cell delivery peptide. (B) Immunofluorescence microscopy showing internalization of EP4-TAT peptide (shown in green) to HCT 116 cells imaged 24 hr post-treatment with inhibitor. (C) Cell viability following 10 μM treatment of EP4 peptide conjugated to cell penetrating peptides, TAT, PR9 and CPP.
Cell viability was measured using the Resazurin reduction assay which indirectly quantifies living cells through the metabolically active reduction of resazurin to fluorescent resorufin. This assay allows to maintain cells viability and, therefore, to monitor cell growth with time. Exponentially growing cells were seeded into 96-well plates at the density of 2.0×10^4 cells/mL and incubated overnight. The media was replaced with fresh media prior to inhibitor treatment. Cells were treated with […] of inhibitor peptide for 24 hr. The inhibitor peptide was diluted in the cell culture media (DMEM −/−) in the absence of serum from a 5 mM stock. All the treated cells were compared to the control (TAT alone peptide with equivalent quantity of DMSO) which were considered as 100% viable. One set of wells also prepared with medium only for background subtracting and instrument gain adjustment. The experiments were carried out in triplicate and expressed as mean±SD. A 10% resazurin solution (0.15 mg/ml stock dissolved in PBS, filter sterilized and stored protected from light at 4° C.) was then added to each well and incubated for 2 hr. The fluorescence was recorded using a multiwell plate reader (Perkin Elmer) at Ex. 560 nm and Em. 610 nm.
The cell penetrating peptide tagged EP4 inhibitors are then tested for loss of cell viability on colorectal carcinoma HCT 116 cell line at a 10 μM dose (FIG. 7C).

[4] = test system: HCT 116 cells; experiment: Flow cytometry, PI staining (subG1 / apoptosis); assay type: cell-based; conditions: HCT 116, 2 μM
Description: FIG. 8. Global cell cycle distribution in EP4-TAT treated HCT 116 cells. EP4-TAT increases global H3K4me3 levels in HCT 116 cells. (A) Two-parameter flow cytometric analysis of BrdU incorporation and DNA content was performed following a 24 hr exposure of 2 μM and 5 μM EP4-TAT to HCT 116 cells. (B) The proportion of propidium iodine stained cells were represented in each phase of the cell cycle cell cycle and (C) dose-response correlation of BrdU positive cells were represented. These values are expressed relative to untreated controls. Each value in B, C represents the mean (+/−SEM) determined from 3 independent experiments.
A total of 0.3×10^6 HCT 116 cells were plated in 6 well-plate and incubated overnight. Cells were treated with the inhibitor, DMSO and TAT alone controls. For each condition, approximately 1×10^6 HCT 116 cells were collected along with the floating cells in the media by centrifugation at 300×g for 10 min. The cells were then washed with 5 mL of ice-cold PBS and re-suspended in 0.5 mL of ice-cold PBS. […] The PI-treated cells were incubated at 37° C. for 30 min and then analyzed by a flow cytometry (BD Accuri™ C6 Plus). […]
To determine whether loss in cell viability was associated with increased apoptosis, HCT 116 cells were treated with 2 μM of EP4-TAT and analyzed by PI staining.

[5] = test system: HCT 116 cells; experiment: Internalization of FITC-labelled peptides (fluorescence microscopy); assay type: cell-based; conditions: HCT 116, 10 μM, 24 hr
Description: as §1
To evaluate the internalization of FITC-labelled peptides, exponentially growing HCT 116 cells were seeded on 6 well plate at a density of 2×10^5 cells per well and incubated overnight. After overnight incubation, the media (DMEM with penstrep and 10% FBS) was replaced with fresh media supplemented with 10 μM FITC-labelled inhibitor peptides. Following the incubation (24 hr), cells were washed three times with ice cold PBS to remove the excess extracellular complexes. Cells were then stained with Hoechst dye (1:2000 dilution from 10 mg/mL stock in PBS) directly adding sufficient staining solution to the well. Cells were incubated for 10 min with the dye, protected from light. The staining solution is discarded and the cells were washed 3 times with PBS and imaged directly under fluorescent microscope.
Our EP4 KDM5C inhibitor peptide were tested for a decrease in cell viability. […]

[6] = test system: NCI60 cancer cell lines; experiment: NCI60 cancer panel screen (SRB staining); assay type: cell-based; conditions: 48 h, normalized to TAT-alone; SNB-75, A498, RXF393, UO-31, HOP-92, NCI-226, EKVX
Description: FIG. 10. NCI60 cancer panel screen of EP4-TAT. EP4-TAT and TAT-alone peptides were sent to the National Cancer Institute—Developmental Therapeutics program for screening effect on cell growth on the NCI60 cancer panel. Cell growth was monitored post-treatment with peptide in a dose-responsive manner (n=4). EP4-TAT effects were normalized to TAT-alone effects to control for delivery peptide. Following drug addition, the plates were incubated for an additional 48 hours at 37° C., 5% CO2, 95% air, and 100% relative humidity. Cell growth was monitored by Sulforhodamine B (SRB) staining. GI50 values are defined at the concentration of EP4-TAT that decreased cell growth by 50%.
Following the receipt at the NCI, cell-active EP4-TAT was be tested for its effects on cell viability in a dose-responsive manner in the complete panel. The effect of EP4-TAT on cell viability was carried out using Sulforhodamine B (SRB) staining in all 60 cell lines (n=4). Using several measurements [time zero (Tz), control growth (C), and growth at the five inhibitor concentrations (Ti)], the percentage growth will be calculated at each inhibition concentration. […]

CPI-455 [reference compound]
global H3K4me3 levels [1]: increase global H3K4me3 levels | IC50 [2]: ~25 µM

FFLIPKGRRRRRRRRR [PR9]
loss of cell viability [3]: 30%

RRWRRWRRWRR [CPP, cell penetrating peptide, chemically synthesized, cationic]
loss of cell viability [3]: 50%

TEDSKTHHH(SEQ ID NO: 4){6-aminohexanoic acid}GRKKRRQRRRPPQ(SEQ ID NO: 45) (TEDSKTHHHGRKKRRQRRRPPQ) [EP4-TAT]
percentage of subG1 peak [4]: 52.8% | global H3K4me3 levels [1]: increase global H3K4me3 levels | demethylation of histone H3K4 tri-methylation ([1]; HCT 116, 25 nM): inhibited | cellular KDM5C inhibition compared with CPI-455 ([1]; HCT 116, relative H3K4me3 levels): more effective | loss of cell viability (comparison of cell penetrating peptide tags) ([3]; HCT 116, 10 μM dose): maximum and consistent loss of cell viability | cellular internalization [5]: internalization | growth inhibitory (GI50) effect [6]: growth inhibitory (GI50) effect in 7 lines

— patent US12589160B2, “Peptide-derived therapeutics targeting KDM5C for the treatment of cancer” (NUVOBIO CORPORATION, priority 2019, dated 2026)
